Assay results: PubChem BioAssay AID2060492 (Molecular Pharmacology Branch, DTP, NCI, 2025)

System: 695427-040-R-J1-PDC complex spheroids, viability percent T/C
Test: Anticancer human tumor 695427-040-R-J1-PDC patient-derived colon adenocarcinoma cell line growth inhibition [GQUAD]
Conditions: for IC50: curve of first compound; for viability, T/C: stronger effect = lower value
Source text: DNA G-quadruplex Stabilizer Agents in Combinations in Complex Spheroids
A high-throughput screen of multi-cell type tumor spheroids was designed to identify active combinations of DNA G-quadruplex stabilizer agents and targeted small molecules. Complex spheroids include a stromal component modeled by human endothelial cells (HUVEC) and fibroblasts modeled by human mesenchymal stem cells (MSCs). The concentration ranges selected for each drug and investigational agent were based upon clinically achievable concentrations if the clinical Cmax of the agent was known.
Compounds. The drugs and investigational agents: pidnarulex (CX-5461; NSC782164), APTO-253 (NSC789042), BRACO-19 (NSC847499), peposertib (NSC802822), ceralasertib (NSC780249), elimusertib (NSC800525), camonsertib (NSC841442), AZD-1390 (NSC803789), olaparib (NSC753686), talazoparib (NSC767125), ART-558 (NSC835418), sotorasib (NSC818433), MRTX-1133 (NSC836407), SN-38 (NSC673596), topotecan (NSC609699), etoposide (NSC141540), doxorubicin (NSC123127), gemcitabine (NSC613327), 5-fluorouracil (NSC19893), paclitaxel (NSC125973), vemurafenib (NSC761431), panobinostat (NSC761190), R-306465 (JNJ-16241199; NSC773264), adavosertib (NSC754352), TP-3654 (NSC805149), carboplatin (NSC241240), KSQ-4279 (NSC840948), and staurosporine (NSC755774) were obtained from the National Cancer Institute (NCI) Developmental Therapeutics Program Chemical Repository (34). The FDA-approved anticancer drug set is available from the NCI Developmental Therapeutics Program. […] The stock solutions were prepared in dimethyl sulfoxide (DMSO, Sigma-Aldrich, St. Louis, MO, cat. D2650) at 800-fold the tested concentration and stored at -70 degrees C prior to their use. All drugs and investigational agents were tested over a range starting from a high concentration at or near the clinical Cmax and decreasing in half-log increments. If the clinical Cmax for an agent had not been determined, the highest concentration tested was 10 microM.
2.3 Cell Culture. All cells were maintained in an incubator at 37 degrees C and 5% CO2 with 95% humidity. The PDC lines were cultured according to standard operating procedures established by the NCI PDMR. All PDCs were thawed and cultured in Matrigel-coated flasks prepared with a working solution of 1X Ham's F-12 nutrient mix, without supplementation (Invitrogen, cat. 11765054), 100 U/mL penicillin-streptomycin (Invitrogen, cat. 15140122), and 2.5% Matrigel (Corning Inc., cat. 354248) for the first three passages. The 857933-349-R-J2-PDC line was cultured in 6C/Colon 1B media, which includes advanced DMEM/F-12 (Thermo Fisher Scientific, cat. 12634028), 10 mM HEPES (Thermo Fisher Scientific, cat. 15630080), 1X GlutaMAX supplement (Thermo Fisher Scientific, cat. 35050061), 0.1 mg/mL primocin (InvivoGen, cat. ant-pm-2), 10% defined fetal bovine serum, heat inactivated (HyClone Laboratories Inc., cat. SH30070.03HI), 50% L-WRN conditioned media (ATCC, cat. CRL-3276), 1.25 mM N-Acetyl-L-cysteine (Sigma-Aldrich, cat. A9165), 10 mM nicotinamide (Sigma-Aldrich, cat. N0636), 1X B-27 supplement (Thermo Fisher Scientific, cat. 17504044), 1X N-2 supplement (Thermo Fisher Scientific, cat. 17502048), 10 microM Y-27632 dihydrochloride (Tocris Bioscience, cat. 1254), and 50 ng/mL human EGF recombinant protein (Thermo Fisher Scientific, cat. PHG0311). The 485176-168-R4-J1-PDC line was cultured in Panc media, which includes all 6C/Colon 1B media components plus 100 ng/mL human FGF-10 (Thermo Fisher Scientific, cat. 100-26), 500 nM SB-431542 (Selleckchem, cat. S1067), and gastrin (Tocris, cat. 3006).
[…]

[1] = second compound 0.0316 µM, first compound 0.0316 µM
[2] = second compound 0.0316 µM, first compound 0.1 µM
[3] = second compound 0.0316 µM, first compound 0.316 µM
[4] = second compound 0.0316 µM, first compound 1 µM
[5] = second compound 0.0316 µM, first compound 3.16 µM
[6] = second compound 0.0316 µM, first compound 10 µM
[7] = second compound 0.1 µM, first compound 0.0316 µM
[8] = second compound 0.1 µM, first compound 0.1 µM
[9] = second compound 0.1 µM, first compound 0.316 µM
[10] = second compound 0.1 µM, first compound 1 µM
[11] = second compound 0.1 µM, first compound 3.16 µM
[12] = second compound 0.1 µM, first compound 10 µM
[13] = second compound 0.316 µM, first compound 0.0316 µM
[14] = second compound 0.316 µM, first compound 0.1 µM
[15] = second compound 0.316 µM, first compound 0.316 µM
[16] = second compound 0.316 µM, first compound 1 µM
[17] = second compound 0.316 µM, first compound 3.16 µM
[18] = second compound 0.316 µM, first compound 10 µM
[19] = second compound 1 µM, first compound 0.0316 µM
[20] = second compound 1 µM, first compound 0.1 µM
[21] = second compound 1 µM, first compound 0.316 µM
[22] = second compound 1 µM, first compound 1 µM
[23] = second compound 1 µM, first compound 3.16 µM
[24] = second compound 1 µM, first compound 10 µM
[25] = second compound 3.16 µM, first compound 0.0316 µM
[26] = second compound 3.16 µM, first compound 0.1 µM
[27] = second compound 3.16 µM, first compound 0.316 µM
[28] = second compound 3.16 µM, first compound 1 µM
[29] = second compound 3.16 µM, first compound 3.16 µM
[30] = second compound 3.16 µM, first compound 10 µM
[31] = second compound 10 µM, first compound 0.0316 µM
[32] = second compound 10 µM, first compound 0.1 µM
[33] = second compound 10 µM, first compound 0.316 µM
[34] = second compound 10 µM, first compound 1 µM
[35] = second compound 10 µM, first compound 3.16 µM
[36] = second compound 10 µM, first compound 10 µM
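Note: spheroids exposed to compounds for seven days before readout.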

Q: Which results are given for `C#Cc1c(F)ccc2cc(O)cc(-c3ncc4c(N5CC6CCC(C5)N6)nc(OCC56CCCN5CC(F)C6)nc4c3F)c12` (centres undefined) + Cc1[nH]c2ccc(F)cc2c1-c1nc2c3cccnc3c3ncccc3c2[nH]1?
A: IC50 (second compound 0.0316 µM): 1580 nM; IC50 (second compound 0.1 µM): 1280 nM; IC50 (second compound 0.316 µM): 1010 nM; IC50 (second compound 1 µM): 932 nM; IC50 (second compound 3.16 µM): 444 nM; IC50 (second compound 10 µM): 438 nM; viability, T/C [1]: 105%; viability, T/C [2]: 95.3%; viability, T/C [3]: 99.3%; viability, T/C [4]: 75.5%; viability, T/C [5]: 10.3%; viability, T/C [6]: 11.7%; viability, T/C [7]: 117%; viability, T/C [8]: 91.6%; viability, T/C [9]: 93.7%; viability, T/C [10]: 62.3%; viability, T/C [11]: 7.36%; viability, T/C [12]: 8.21%; viability, T/C [13]: 102%; viability, T/C [14]: 96.7%; viability, T/C [15]: 80.4%; viability, T/C [16]: 55.7%; viability, T/C [17]: 5.93%; viability, T/C [18]: 5.99%; viability, T/C [19]: 86.8%; viability, T/C [20]: 84.5%; viability, T/C [21]: 82.5%; viability, T/C [22]: 48%; viability, T/C [23]: 3.1%; viability, T/C [24]: 2.8%; viability, T/C [25]: 73.6%; viability, T/C [26]: 73.2%; viability, T/C [27]: 62.5%; viability, T/C [28]: 19.9%; viability, T/C [29]: 1.77%; viability, T/C [30]: 1.26%; viability, T/C [31]: 70.8%; viability, T/C [32]: 60.4%; viability, T/C [33]: 61.4%; viability, T/C [34]: 21.9%; viability, T/C [35]: 1.1%; viability, T/C [36]: 1.13%

Q: How did the IC50 (second compound 0.0316 µM) turn out when `Nc1ccn(C2OC(CO)C(O)C2(F)F)c(=O)n1` (centres undefined) + Cc1[nH]c2ccc(F)cc2c1-c1nc2c3cccnc3c3ncccc3c2[nH]1 was run?
A: > 10000 nM

Q: What about the IC50 (second compound 0.1 µM) of the same compound?
A: > 10000 nM

Q: What about the IC50 (second compound 0.316 µM) of the same compound?
A: > 10000 nM

Q: What about the IC50 (second compound 1 µM) of the same compound?
A: > 10000 nM

Q: What about the IC50 (second compound 3.16 µM) of the same compound?
A: 1650 nM

Q: What about the IC50 (second compound 10 µM) of the same compound?
A: 1440 nM

Q: What about the viability, T/C [1] of the same compound?
A: 78.4%

Q: What about the viability, T/C [2] of the same compound?
A: 74.8%

Q: What about the viability, T/C [3] of the same compound?
A: 71.3%

Q: What about the viability, T/C [4] of the same compound?
A: 54.6%

Q: What about the viability, T/C [5] of the same compound?
A: 56.4%

Q: And the viability, T/C [6]?
A: 46.7%

Q: And the viability, T/C [7]?
A: 92.2%

Q: And the viability, T/C [8]?
A: 75.1%

Q: What about the viability, T/C [9] of the same compound?
A: 59%

Q: What about the viability, T/C [10] of the same compound?
A: 54.1%

Q: What about the viability, T/C [11] of the same compound?
A: 60.5%

Q: And the viability, T/C [12]?
A: 52.1%

Q: And the viability, T/C [13]?
A: 86%

Q: And the viability, T/C [14]?
A: 70.8%

Q: What about the viability, T/C [15] of the same compound?
A: 64.4%

Q: What about the viability, T/C [16] of the same compound?
A: 55.1%

Q: What about the viability, T/C [17] of the same compound?
A: 66.6%

Q: And the viability, T/C [18]?
A: 46.5%

Q: And the viability, T/C [19]?
A: 87.3%

Q: And the viability, T/C [20]?
A: 64.6%

Q: What about the viability, T/C [21] of the same compound?
A: 59.2%

Q: And the viability, T/C [22]?
A: 57.9%

Q: What about the viability, T/C [23] of the same compound?
A: 63.1%

Q: And the viability, T/C [24]?
A: 48.8%

Q: What about the viability, T/C [25] of the same compound?
A: 67.6%

Q: And the viability, T/C [26]?
A: 55.4%

Q: And the viability, T/C [27]?
A: 55.5%

Q: And the viability, T/C [28]?
A: 53.3%

Q: What about the viability, T/C [29] of the same compound?
A: 51.4%

Q: And the viability, T/C [30]?
A: 39.8%

Q: What about the viability, T/C [31] of the same compound?
A: 63.2%

Q: What about the viability, T/C [32] of the same compound?
A: 59.4%

Q: What about the viability, T/C [33] of the same compound?
A: 57.8%

Q: What about the viability, T/C [34] of the same compound?
A: 51%

Q: And the viability, T/C [35]?
A: 43%

Q: And the viability, T/C [36]?
A: 47.4%
